Patent EP0857721A1, “ACRIDONE COMPOUNDS” (Eisai Co., Ltd., priority 1995, dated 1997)

System: RBL-2H3 cells
Test: Inhibition of serotonin liberation from IgE-sensitized, antigen-stimulated RBL-2H3 cells ([3H]-serotonin)
Format: cell-based
Settings: Rattus norvegicus; IgE-sensitized RBL-2H3 cells stimulated with specific antigen; [3H]-labeled serotonin
Source text: Under the action of an antigen specific to the IgE antibody, RBL-2H3 cells, i.e., a cell line originating in rat cells, not only liberate histamine and serotonin but also produce and liberate cytokines such as TNF" serving as an inflammatory mediator and prostaglandins. In this experimental system, the effects of the compounds of the present invention of inhibiting the liberation of various mediators were examined by using serotonin as an indication.
The cells were labeled with [^3H]-labeled serotonin and, at the same time, sensitized with the IgE antibody. Next, these cells were incubated in the presence of the acridone compounds according to the present invention and then stimulated with the specific antigen. Then the serotonin liberation inhibitory activity of each acridone compound was calculated from the amount of the [^3H]-labeled serotonin thus liberated into the medium due to the above-mentioned stimulation and the amount of the [^3H]-labeled serotonin liberated into the medium by the same experimental procedure as the one described above but adding no acridone compound of the present invention.

| Structure (SMILES) | IC50 [µM] |
| --- | --- |
| Cc1ccc2c(=O)c3c(CCC(=O)O)cccc3n(CCCNCc3ccccc3)c2c1C [Compound 5] | 3 |
| Cc1ccc2c(=O)c3c(C(C)CC(=O)O)cccc3n(CCCNCc3ccccc3)c2c1C (stereo not drawn) [Compound 8] | 8 |
| Cc1ccc2c(=O)c3c(C(C)CC(=O)O)cccc3n(CCCNCc3ccc(Cl)cc3Cl)c2c1C (stereo not drawn) [Compound 9] | 10 |
| Cc1ccc2c(=O)c3c(CC(=O)O)cccc3n(CCCNCc3cc4ccccc4o3)c2c1C [Compound 11] | 0.5 |
| Cc1ccc2c(=O)c3c(CC(=O)O)cccc3n(CCCNCc3ccco3)c2c1C [Compound 12] | 0.5 |
| Cc1ccc2c(=O)c3c(CC(=O)O)cccc3n(CCCN)c2c1C [Compound 14] | 10 |
| Cc1ccc2c(=O)c3c(C(C)CC(=O)O)cccc3n(CCCN)c2c1C (stereo not drawn) [Compound 18] | 10 |
| CCOC(=O)Cc1cccc2c1c(=O)c1ccc(C)c(C)c1n2CCCNCc1ccccc1 [Compound 21] | 8 |
| COC(=O)CCc1cccc2c1c(=O)c1ccc(C)c(C)c1n2CCCNCc1ccccc1 [Compound 22] | 3 |
| Cc1ccc2c(=O)c3c(CC(=O)O)cccc3n(CCCNCc3ccc(Cl)c(Cl)c3O)c2c1C [Compound 23] | 8 |
| Cc1ccc2c(=O)c3c(CC(=O)O)cccc3n(CCCNCc3ccc(Cl)c(O)c3Cl)c2c1C [Compound 24] | 8 |
| Cc1ccc2c(=O)c3c(CC(=O)O)cccc3n(CCCN(C)Cc3ccc(Cl)c(O)c3Cl)c2c1C [Compound 25] | 6 |
| Cc1ccc(CNCCCn2c3cccc(CC(=O)O)c3c(=O)c3ccc(C)c(C)c32)c(C)c1 [Compound 26] | 10 |
| Cc1ccc(CN(C)CCCn2c3cccc(CC(=O)O)c3c(=O)c3ccc(C)c(C)c32)c(C)c1 [Compound 27] | 10 |
| Cc1ccc2c(=O)c3c(CC(=O)O)cccc3n(CCCNCc3ccc(C(F)(F)F)cc3C(F)(F)F)c2c1C [Compound 29] | 8 |
| Cc1ccc2c(=O)c3c(CC(=O)O)cccc3n(CCCNCc3ccc(Cl)cc3O)c2c1C [Compound 30] | 2 |
| Cc1ccc2c(=O)c3c(CC(=O)O)cccc3n(CCCNCc3ccc(O)cc3)c2c1C [Compound 31] | 1 |
| Cc1ccccc1CNCCCn1c2ccccc2c(=O)c2ccc(C)c(C)c21 [Compound 32] | 1 |
| Cc1cccc(CNCCCn2c3ccccc3c(=O)c3ccc(C)c(C)c32)c1 [Compound 33] | 2 |
| Cc1ccc2c(=O)c3ccccc3n(CCCNCc3cccc(C#N)c3)c2c1C [Compound 35] | 3 |

| Structure (SMILES) | IC50 [µM] |
| --- | --- |
| Cc1ccc2c(=O)c3ccccc3n(CCCNCc3ccc(C#N)cc3)c2c1C [Compound 36] | 2 |
| Cc1ccc2c(=O)c3ccccc3n(CCCNCc3cccc(C(F)(F)F)c3)c2c1C [Compound 38] | 2 |
| Cc1ccc2c(=O)c3ccccc3n(CCCNCc3ccccc3F)c2c1C [Compound 41] | 3 |
| Cc1ccc2c(=O)c3ccccc3n(CCCNCc3cccc(F)c3)c2c1C [Compound 42] | 2 |
| Cc1ccc2c(=O)c3ccccc3n(CCCNCc3ccc(F)cc3)c2c1C [Compound 43] | 2 |
| Cc1ccc2c(=O)c3ccccc3n(CCCNCc3ccccc3Br)c2c1C [Compound 44] | 5 |
| Cc1ccc2c(=O)c3ccccc3n(CCCNCc3cccc(Br)c3)c2c1C [Compound 45] | 2 |
| Cc1cc(CNCCCn2c3ccccc3c(=O)c3ccc(C)c(C)c32)ccc1O [Compound 46] | 4 |
| Cc1cc(CNCCCn2c3ccccc3c(=O)c3ccc(C)c(C)c32)cc(C)c1O [Compound 47] | 7 |
| Cc1ccc2c(=O)c3ccccc3n(CCCNCc3c(Cl)cccc3Cl)c2c1C [Compound 48] | 1 |
| COC(=O)c1ccc(CNCCCn2c3ccccc3c(=O)c3ccc(C)c(C)c32)cc1 [Compound 50] | 4 |
| Cc1ccc2c(=O)c3ccccc3n(CCCNCc3ccc(C(N)=O)cc3)c2c1C [Compound 55] | 10 |
| Cc1ccc2c(=O)c3ccccc3n(CCCNCc3cccc(C(=O)O)c3)c2c1C [Compound 56] | 7 |
| Cc1ccc2c(=O)c3ccccc3n(CCCNCc3ccccc3C(F)(F)F)c2c1C [Compound 61] | 1 |
| Cc1ccc(CNCCCn2c3ccccc3c(=O)c3ccc(C)c(C)c32)cc1 [Compound 62] | 1 |
| Cc1ccc2c(=O)c3ccccc3n(CCCNCc3ccccc3Cl)c2c1C [Compound 63] | 10 |
| Cc1ccc2c(=O)c3ccccc3n(CCCNCc3cccc(Cl)c3)c2c1C [Compound 64] | 5 |
| Cc1ccc2c(=O)c3ccccc3n(CCCNCc3ccc(Br)cc3)c2c1C [Compound 66] | 5 |
| Cc1ccc2c(=O)c3ccccc3n(CCCNCc3ccc(Cl)cc3Cl)c2c1C [Compound 67] | 1 |
| CNS(=O)(=O)c1ccc(CNCCCn2c3ccccc3c(=O)c3ccc(C)c(C)c32)cc1 [Compound 69] | 7 |

| Structure (SMILES) | IC50 [µM] |
| --- | --- |
| Cc1ccc2c(=O)c3ccccc3n(CCCNCc3ccc(S(=O)(=O)N(C)C)cc3)c2c1C [Compound 70] | 8 |
| Cc1ccc2c(=O)c3ccccc3n(CCCNOCc3ccccc3)c2c1C [Compound 72] | 2 |
| Cc1ccc2c(=O)c3ccccc3n(CCCN(CCC#N)Cc3ccccc3)c2c1C [Compound 75] | 3 |
| Cc1ccc2c(=O)c3ccccc3n(CCCN(CCC(N)=O)Cc3ccccc3)c2c1C [Compound 76] | 4 |
| Cc1ccc2c(=O)c3ccccc3n(CCCN(CCO)Cc3ccccc3)c2c1C [Compound 77] | 1 |
| Cc1cc(CN(C)CCCn2c3ccccc3c(=O)c3ccc(C)c(C)c32)cc(C)c1O [Compound 79] | 7 |
| Cc1ccc2c(=O)c3ccccc3n(CCCNc3cccc(-c4nnn[nH]4)c3)c2c1C [Compound 80] | 11 |
| COc1cccc(NCCCn2c3ccccc3c(=O)c3ccc(C)c(C)c32)c1 [Compound 81] | 10 |
| Cc1ccc2c(=O)c3ccccc3n(CCCN(C3CCCCC3)C3CCCCC3)c2c1C [Compound 83] | 5 |
| Cc1ccc(CNCCCn2c3cc(F)ccc3c(=O)c3ccc(C)c(C)c32)cc1 [Compound 86] | 3 |
| COc1ccc2c(=O)c3ccc(C)c(C)c3n(CCCNCc3ccc(C)cc3)c2c1 [Compound 87] | 2 |
| COc1cccc2c1c(=O)c1ccc(C)c(C)c1n2CCCNCc1ccc(C)cc1 [Compound 88] | 2 |
| CCN(CCCn1c2cccc(CC(=O)O)c2c(=O)c2ccc(C)c(C)c21)Cc1ccccc1 [Compound 91] | 8 |
| Cc1ccc(CN(C)CCCn2c3cccc(CC(=O)O)c3c(=O)c3ccc(C)c(C)c32)cc1 [Compound 95] | 10 |
| Cc1ccc2c(=O)c3c(CC(=O)O)cccc3n(CCCN(C)Cc3cccc4ccccc34)c2c1C [Compound 97] | 10 |
| COc1ccc(CNCCCn2c3cccc(CC(=O)O)c3c(=O)c3ccc(C)c(C)c32)c(OC)c1 [Compound 99] | 10 |
| Cc1ccc2c(=O)c3c(CC(=O)O)cccc3n(CCCNCc3ccc(F)cc3F)c2c1C [Compound 100] | 10 |
| Cc1ccc2c(=O)c3c(CC(=O)O)cccc3n(CCCNCc3ccc(F)c(F)c3)c2c1C [Compound 103] | 3 |
| Cc1ccc2c(=O)c3c(CC(=O)O)cccc3n(CCCNCc3ccc(F)cc3)c2c1C [Compound 104] | 5 |
| Cc1ccc2c(=O)c3c(CC(=O)O)cccc3n(CCCNCc3ccccc3Cl)c2c1C [Compound 105] | 5 |
